Test results as given in patent publication US20240270748A1 (Merck Patent GmbH, priority 2021, published 2024).
Structures can show the parent of a compound that is named as a salt.

Key:
[1] = system: YAP-TEAD interaction; assay: SK-HEP-1 reporter assay (8xTEAD responsive elements driving NanoLuc luciferase); type: cell-based
Summary of the method: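 Reporter read-out: NanoLuc luminescence from 8×TEAD elements stably integrated in SK-HEP-1 cells, after 24 h compound exposure at 37° C. Ten concentrations tested in duplicate, top 30 μM final, 0.3% DMSO; IC50 from curve.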

[2] = system: NCI-H226 cells; assay: Viability assay in NCI-H226 (Yap-dependent) cells, CyQuant; type: cell-based, human
Experimental: (§1) Viability Assay in NCI-H226 (Yap-Dependent) and SW620 Yap KO (Yap Independent) Cells
(§2) The ability of YAP-TEAD inhibitors to inhibit tumor cell growth was evaluated using two different cell lines: NCI-H226, which is a YAP dependent cell line, and SW620 cells, where YAP and TAZ were knocked out using CRISPR to generate a YAP independent cell line.
(§3) For the assay, cells were treated in duplicates with the test compounds in a 10-point dose, 1:3 dilution steps, with the top concentration starting at 30 μM (final concentration in assay). After a 96 hour incubation at 37° C., 95% rH, and 5% CO2, a cell-permeant DNA-binding dye that stains only healthy cells (CyQUANT®, Promega) was added to the cells, allowing the quantification of cell viability.
(§4) Cell Media: The NCI-H226 cells were cultured in the following media: RPMI 1640, +10% FBS, +1× GlutaMAX, +10 mM HEPES, +0.5% Pen/Strep. The SW620-KO cells were cultured in the following media: DMEM/F-12, +10% FBS, +1× GlutaMAX, +10 mM HEPES, +0.5% Pen/Strep.
(§5) Reagents: The reagents used are listed below:
(§6) Cell culture: The cells were examined using an inverted microscope to check for health, cell density, etc. To dissociate adherent cells, the monolayer of cells was washed once with pre-warmed PBS. After removing the PBS, 3 ml pre-warmed Accutase was added to a F75 flask, dispersed evenly and the flask was allowed to sit in incubator for ˜4-5 minutes.
(§7) When a single cell suspension was obtained, 7 ml of prewarmed growth media was added and resuspended with the cells. The cell suspension was transferred to a sterile 15 ml conical centrifuge tube, and spun for 5 min at 300×g, RT. The supernatant was discarded and the pellet was resuspended in 10 ml of pre-warmed growth media.
(§8) The total cell count was determined, and 20 μl of the desired cell number was added to each well of a 384 well plate using a Multidrop Combi. The plates were then incubated for 24 hours at 37° C., 95% rH, and 5% CO2.
(§9) Compound treatment: 24 hours after seeding, the cells were treated with compounds.
(§10) A 1:333 dilution of compounds, diluted in DMSO, was made to get a final concentration of 0.3% DMSO per well. To transfer the compounds to the assay plate, […] was shot from Labcyte low dead volume plates to the cell plates containing 20 μl media/well with the ECHO 555 liquid handling system.
(§11) After treatment, the cells were fed with 20 μl fresh pre-warmed assay media using a Multidrop combi.
(§12) The assay plates were then incubated for 96 h at 37° C., 95% rH, and 5% CO2.
(§13) 96 h after treatment 30 μl of CyQuant® reagent was added to the assay plates using a Multidrop combi in the dark. The plates were then incubated for 1 hour at 37° C., 95% rH and 5% CO2. Thereafter, the assay plates were removed from the incubator and allowed to equilibrate to RT for 30 min in the dark without lid. Finally, they were measured using an EnVision microplate reader with a FITC bottom read program.

[3] = system: SW620 Yap KO cells; assay: Viability assay in SW620 Yap KO (Yap independent) cells, CyQuant; type: cell-based; conditions: Homo sapiens, SW-620, 96 h
Experimental: as §1, §2, §3, §4, §5, §6, §7, §8, §9, §10, §11, §12, §13

[4] = SK-HEP-1 reporter assay, class symbols
[5] = Homo sapiens, NCI-H226, 96 h, class symbols
[6] = Homo sapiens, SK-HEP1, SK-HEP-1 reporter assay, n.d. = value not detectable below threshold given in parentheses, ND = not determinable within the entire range
[7] = Homo sapiens, NCI-H226, 96 h, n.d. = value not detectable below threshold given in parentheses
[8] = Homo sapiens, SK-HEP1, SK-HEP-1 reporter assay, class symbols
[9] = n.d. = value not detectable below threshold given in parentheses, ND = not determinable within the entire range
[10] = n.d. = value not detectable below threshold given in parentheses
[11] = Homo sapiens, SK-HEP1, SK-HEP-1 reporter assay, n.d. = value not detectable below threshold given in parentheses

SMILES | IC50 [2, 5] | IC50 [1, 8] | also measured
Cn1cnc2c1c1cc(C3CC(Oc4cncnc4)=NO3)ccc1n2-c1ccc(C(F)(F)F)cc1 (centres unmarked) [Example 40, 5-[(5-{1-methyl-4-[4-(trifluoromethyl)phenyl]-1H,4H-imidazo[4,5-b]indol-7-yl}-4,5-dihydro-1,2-oxazol-3-yl)oxy]pyrimidine] | > 10000 nM | – | IC50 [1, 4]: 10 to 100 nM; IC50 ([3]; class symbols): > 30000 nM
Cn1cc2c3cc(NS(=O)(=O)Cc4ccncc4)ccc3n(-c3ccc(C(F)(F)F)cc3)c2n1 [Example C128, N-{2-methyl-8-[4-(trifluoromethyl)phenyl]-2H,8H-pyrazolo[3,4-b]indol-5-yl}-1-(pyridin-4-yl)methanesulfonamide] | – | – | IC50 [1, 6]: > 10000 nM; IC50 [2, 7]: > 3 nM
Cc1cc(C(CO)NC(=O)c2ccc3c(c2)c2cn(C)nc2n3-c2ccc(C(F)(F)F)cc2)ccn1 (centres unmarked) [Example C219, N-[2-hydroxy-1-(2-methylpyridin-4-yl)ethyl]-2-methyl-8-[4-(trifluoromethyl)phenyl]-2H,8H-pyrazolo[3,4-b]indole-5-carboxamide] | 100 to 1000 nM | 10 to 100 nM | IC50 [3, 10]: > 3000 nM
Cn1cc2c3cc(C(=O)N=[S@](=O)(CCCO)Cc4ccccn4)ccc3n(-c3ccc(C(F)(F)F)cc3)c2n1 (single isomer, unassigned) [Example C213] | – | – | IC50 ([1]; SK-HEP-1 reporter assay, n.d. = value not detectable below threshold given in parentheses): > 300 nM; IC50 ([2]; 96 h, class symbols): 1 to 100 nM; IC50 [3, 10]: > 3000 nM
Cn1nc2c3cc(C(=O)N=[S@@](=O)(CCO)Cc4ccccn4)ccc3n(-c3ccc(C(F)(F)F)cc3)c2n1 (single isomer, unassigned) [Example C157] | 100 to 1000 nM | 10 to 100 nM | IC50 ([3]; class symbols): 1000 to 10000 nM
Cn1cc2c3cc(C(=O)NCc4ccncc4)ccc3n(C3CC4(C3)CC(F)(F)C4)c2n1 [Example C208, 8-{6,6-difluorospiro[3.3]heptan-2-yl}-2-methyl-N-[(pyridin-4-yl)methyl]-2H,8H-pyrazolo [3,4-b]indole-5-carboxamide] | 100 to 1000 nM | 10 to 100 nM | IC50 [3, 10]: > 30000 nM
Cn1cc2c3cc(C(=O)N=[S@@](=O)(CCCO)Cc4ccccn4)ccc3n(-c3ccc(C(F)(F)F)cc3)c2n1 (single isomer, unassigned) [Example C210] | 100 to 1000 nM | – | IC50 [1, 11]: > 95 nM; IC50 [3, 10]: > 3000 nM
Cn1cc2c3cc(C(=O)N4CC[C@H](O)C4)ccc3n(-c3ccc(C(F)(F)F)cn3)c2n1 [Example C151, (3S)-1-{2-methyl-8-[5-(trifluoromethyl)pyridin-2-yl]-2H,8H-pyrazolo[3,4-b]indole-5-carbonyl}pyrrolidin-3-ol] | 100 to 1000 nM | – | IC50 [1, 6]: > 10000 nM
Cn1cc2c3cc(NS(=O)(=O)Cc4cccnc4)ccc3n(-c3ccc(C(F)(F)F)cc3)c2n1 [Example C129, N-{2-methyl-8-[4-(trifluoromethyl)phenyl]-2H,8H-pyrazolo[3,4-b]indol-5-yl}-1-(pyridin-3-yl)methanesulfonamide] | 1000 to 10000 nM | – | IC50 [1, 6]: > 10000 nM
Cn1cc2c3cc(NS(=O)(=O)Cc4ccccn4)ccc3n(-c3ccc(C(F)(F)F)cc3)c2n1 [Example C130, N-{2-methyl-8-[4-(trifluoromethyl)phenyl]-2H,8H-pyrazolo[3,4-b]indol-5-yl}-1-(pyridin-2-yl)methanesulfonamide] | – | – | IC50 [1, 6]: > 30000 nM; IC50 [2, 7]: > 3 nM
Cn1cc2c3cc(C(=O)O)cnc3n(-c3ccc(C(F)(F)F)cc3)c2n1 [Example 37, 4-methyl-7-[4-(trifluoromethyl)phenyl]-4,5,7,9-tetraazatricyclo[6.4.0.0^2,6]dodeca-1(8),2,5,9,11-pentaene-11-carboxylic acid] | – | – | IC50 [1, 4]: 1 to 10 nM; IC50 ([2]; 96 h, class symbols): > 10000 nM
Cn1cc2c3cc(C(=O)N[C@H](CCO)c4ccccn4)ccc3n(-c3ccc(C(F)(F)F)cc3)c2n1 (single isomer, unassigned) [Example C239] | 100 to 1000 nM | 100 to 10000 nM | –

More lines, main results first:

IC50 [2, 5] | IC50 [1, 8] | SMILES | also measured
1 to 100 nM | 10 to 100 nM | Cn1cc2c3cc(C(=O)NC(CO)c4ncc[nH]4)ccc3n(-c3ccc(C(F)(F)F)cc3)c2n1 (centres unmarked) [Example C273, N-[2-hydroxy-1-(1H-imidazol-2-yl)ethyl]-2-methyl-8-[4-(trifluoromethyl)phenyl]-2H,8H-pyrazolo[3,4-b]indole-5-carboxamide trifluoroacetate] | –
100 to 1000 nM | 10 to 100 nM | Cn1cc2c3cc(N=S(C)(C)=O)ccc3n(-c3ccc(C(F)(F)F)cc3)c2n1 [Example C106, dimethyl({2-methyl-8-[4-(trifluoromethyl)phenyl]-2H,8H-pyrazolo[3,4-b]indol-5-yl}imino)-\6-sulfanone] | IC50 [3, 9]: > 30000 nM
1 to 100 nM | 10 to 100 nM | Cc1snc2c1c1cc(C(=O)N[C@H](c3ccccc3)[C@H](C)O)ccc1n2-c1ccc(C(F)(F)F)cc1 [Example C81, N-[(1R,2S)-2-hydroxy-1-phenylpropyl]-3-methyl-8-[4-(trifluoromethyl)phenyl]-8H-[1,2]thiazolo[3,4-b]indole-5-carboxamide] | IC50 [3, 9]: > 3200 nM
1 to 100 nM | 10 to 100 nM | Cn1nc2c3cc(C(=O)N[C@@H](CO)C(F)(F)F)ccc3n(-c3ccc(C(F)(F)F)cc3)c2n1 [Example C86, 2-methyl-N-[(2S)-1,1,1-trifluoro-3-hydroxypropan-2-yl]-4-[4-(trifluoromethyl)phenyl]-2H,4H-[1,2,3]triazolo [4,5-b]indole-7-carboxamide] | IC50 [3, 9]: > 30000 nM
1 to 100 nM | 10 to 100 nM | Cn1nc2c3cc(C(=O)N[C@@](C)(CO)c4ccccn4)ccc3n(-c3ccc(C(F)(F)F)cc3)c2n1 (single isomer, unassigned) [Example C189] | IC50 [3, 10]: > 30000 nM
1 to 100 nM | 10 to 100 nM | Cc1snc2c1c1cc(C(=O)N[C@](C)(CO)c3ccccc3)ccc1n2-c1ccc(C(F)(F)F)cc1 [Example C80, N-[(2S)-1-hydroxy-2-phenylpropan-2-yl]-3-methyl-8-[4-(trifluoromethyl)phenyl]-8H-[1,2]thiazolo[3,4-b]indole-5-carboxamide] | IC50 [3, 9]: > 30000 nM
1 to 100 nM | 10 to 100 nM | Cn1nc2c3cc(C(=O)N[C@](C)(CO)c4ccccn4)ccc3n(-c3ccc(C(F)(F)F)cc3)c2n1 (single isomer, unassigned) [Example C187] | IC50 ([3]; class symbols): 1000 to 10000 nM
1 to 100 nM | 10 to 100 nM | Cc1snc2c1c1cc(C(=O)N[C@@H](CO)C3CCC3)ccc1n2-c1ccc(C(F)(F)F)cc1 [Example C91, N-[(1R)-1-cyclobutyl-2-hydroxyethyl]-3-methyl-8-[4-(trifluoromethyl)phenyl]-8H-[1,2]thiazolo[3,4-b]indole-5-carboxamide] | IC50 [3, 9]: > 3200 nM
1 to 100 nM | – | Cn1cc2c3cc(C(=O)N=[S@](=O)(CCO)Cc4cccnc4)ccc3n(-c3ccc(C(F)(F)F)cc3)c2n1 (single isomer, unassigned) [Example C188] | IC50 [1, 11]: > 9500 nM
1 to 100 nM | 10 to 100 nM | Cn1nc2c3cc(C(=O)NC(CO)c4cscn4)ccc3n(-c3ccc(C(F)(F)F)cc3)c2n1 (centres unmarked) [Example C276, N-[2-hydroxy-1-(1,3-thiazol-4-yl)ethyl]-2-methyl-4-[4-(trifluoromethyl)phenyl]-2H,4H-[1,2,3]triazolo[4,5-b]indole-7-carboxamide] | –
1 to 100 nM | 1 to 10 nM | Cc1snc2c1c1cc(C(=O)NCc3ncccn3)ccc1n2-c1ccc(C(F)(F)F)cc1 [Example C63, 3-methyl-N-[(pyrimidin-2-yl)methyl]-8-[4-(trifluoromethyl)phenyl]-8H-[1,2]thiazolo[3,4-b]indole-5-carboxamide] | –
